Article PMC3406030, “Structure of an MmyB-Like Regulator from C. aurantiacus, Member of a New Transcription Factor Family Linked to Antibiotic Metabolism in Actinomycetes” (PLoS ONE, 2012)

Assays:
[1] = target: T1, MltR (Caur_2278) (Chloroflexus aurantiacus, UniProt A9WGF5); experiment: X-ray crystallography (SAD, […] Å); assay type: binding; details: co-purified ligand, none added; identity tentative, modelled from electron density (related fatty acid, mixture or PEG fragment not excluded); PAS-like C-terminal domain; pH 9.1, 277 K
T1 construct: full length, 291 residues, SeMet derivative; N-terminal His tag cut by TEV leaving Gly0; expressed in E. coli; dimer in crystal, monomer by size exclusion
T1 sequence (A9WGF5 1-291): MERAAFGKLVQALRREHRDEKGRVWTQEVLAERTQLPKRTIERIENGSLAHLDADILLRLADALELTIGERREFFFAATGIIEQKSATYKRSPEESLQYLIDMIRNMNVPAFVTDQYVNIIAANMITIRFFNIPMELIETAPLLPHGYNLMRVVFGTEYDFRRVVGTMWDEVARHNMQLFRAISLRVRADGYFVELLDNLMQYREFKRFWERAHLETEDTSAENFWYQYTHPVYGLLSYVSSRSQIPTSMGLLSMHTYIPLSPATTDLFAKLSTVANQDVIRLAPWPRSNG

[2] = target: MmyB-like transcription regulator MltR (Caur_2278) from Chloroflexus aurantiacus (Chloroflexus aurantiacus J-10-fl) (UniProt A9WGF5); experiment: crystal structure; SeMet MltR, tag removed, 11.1 mg/ml; 0.2M NaCl, 10.5% polyethylene glycol 8000, 0.1M CHES pH 9.1, 277 K; space group C2, three monomers (1.5 dimers) in the asymmetric unit; bound myristic acid

| stoichiometry N [2] | Molecule | X-ray crystallography (SAD, 2.3 Å) [1] |
| --- | --- | --- |
|  | CCCCCCCCCCCCCC(=O)O [MYR, myristic acid] | additional electron density in the putative ligand-binding site clearly indicated the presence of a fatty acid-type ligand |
| 2 | MmyB-like transcription regulator MltR (Caur_2278) from Chloroflexus aurantiacus (from UniProt A9WGF5 1-291) (natural protein) |  |
